Source: PMC6923382, “Small molecules that inhibit TNF signalling by stabilising an asymmetric form of the trimer” (Nature Communications, 2019)
Where “and” joins values, the source holds several entries; their conditions need not be identical. Identical values can stand only once. Like-named read-outs stand apart in the source and are kept apart here.

Experiment: Blood exposure of UCB-9260 in the mouse models
Assay type: in vivo
Conditions: for concentration at 1 h: zymosan model
[1] = 150mg/kg, CAIA model, individual mice

For `Cc1ccc(C)c(Cn2c(C(O)c3ccncc3)nc3ccc(-c4cnn(C)c4)cc32)c1` (stereo not drawn) [UCB-9260], the concentration at 0.5 h (10mg/kg, human TNF neutrophilia model, individual mice, 0.5h post dose, read-out: Total exposure) was 474.6 nM and 924.2 nM and 1089.9 nM, the concentration at 0.5 h (10mg/kg, human TNF neutrophilia model, individual mice, read-out: Free exposure) was 26.2 nM and 11.4 nM and 22.2 nM and the concentration at 0.5 h (10mg/kg, mouse TNF neutrophilia model, individual mice, 0.5h post dose, read-out: Total exposure) was 1244.4 nM and 1494.9 nM. The concentration at 0.5 h (10mg/kg, mouse TNF neutrophilia model, individual mice, read-out: Free exposure) was 29.2 nM and 29.9 nM, the concentration at 1 h (10mg/kg, individual mice, read-out: free exposure 1h post dose) was 2.5 nM and 2.4 nM and 0.6 nM and 1.0 nM and 1.8 nM and 4.0 nM and 2.1 nM and 2.3 nM and the concentration at 1 h (10mg/kg, individual mice, read-out: total exposure 1h post dose) was 102.2 nM and 99.4 nM and 24.6 nM and 40.4 nM and 74.6 nM and 166.9 nM and 86.4 nM and 96.3 nM. For the same molecule, the concentration at 0.5 h (30mg/kg, human TNF neutrophilia model, individual mice, 0.5h post dose, read-out: Total exposure) was 10561.3 nM and 11259.5 nM and 3572.5 nM, the concentration at 0.5 h (30mg/kg, human TNF neutrophilia model, individual mice, read-out: Free exposure) was 85.7 nM and 253.5 nM and 270.2 nM and the concentration at 0.5 h (30mg/kg, mouse TNF neutrophilia model, individual mice, 0.5h post dose, read-out: Total exposure) was 7504.0 nM and 10604.5 nM. The concentration at 0.5 h (30mg/kg, mouse TNF neutrophilia model, individual mice, read-out: Free exposure) was 239.5 nM and 180.1 nM, the concentration at 1 h (30mg/kg, individual mice, read-out: free exposure 1h post dose) was 92.9 nM and 80.2 nM and 78.8 nM and 67.6 nM and 46.9 nM and 54.7 nM and 89.2 nM and the concentration at 1 h (30mg/kg, individual mice, read-out: total exposure 1h post dose) was 3868.9 nM and 3340.4 nM and 3284.9 nM and 2814.8 nM and 1955.1 nM and 2278.1 nM and 3715.9 nM. For the same molecule, the concentration at 0.5 h (100mg/kg, human TNF neutrophilia model, individual mice, 0.5h post dose, read-out: Total exposure) was 23486.3 nM and 36904.4 nM, the concentration at 0.5 h (100mg/kg, human TNF neutrophilia model, individual mice, read-out: Free exposure) was 698.5 nM and 563.7 nM and the concentration at 0.5 h (100mg/kg, mouse TNF neutrophilia model, individual mice, 0.5h post dose, read-out: Total exposure) was 80513.8 nM and 31681.7 nM. The concentration at 0.5 h (100mg/kg, mouse TNF neutrophilia model, individual mice, read-out: Free exposure) was 760.4 nM and 1932.3 nM, the concentration at 1 h (100mg/kg, individual mice, read-out: free exposure 1h post dose) was 700.8 nM and 684.7 nM and 194.3 nM and 787.1 nM and 495.2 nM and 309.3 nM and 1017.0 nM and 852.7 nM and the concentration at 1 h (100mg/kg, individual mice, read-out: total exposure 1h post dose) was 29201.0 nM and 28529.7 nM and 8095.9 nM and 32795.2 nM and 20631.9 nM and 12886.1 nM and 42373.7 nM and 35527.1 nM. For the same molecule, the “Cave post 1st dose (free)” value (150 mg/kg B.I.D., CAIA model) was 307 ± 74 nM, the “Cave post 1st dose total” value (150 mg/kg B.I.D., CAIA model) was 12,808 ± 3,070 nM and the “Free UCB-9260, 1 hour” value [1] was 535.0 nM and 406.9 nM and 100.9 nM and 971.5 nM and 479.3 nM. The “Free UCB-9260, 6 hour” value [1] was 368.0 nM and 6.0 nM and 50.3 nM and 428.5 nM and 99.9 nM, the “Total UCB-9260, 1 hour” value [1] was 22.292 µM and 16.9554 µM and 4.206 µM and 40.4784 µM and 19.9726 µM and 13.3543 µM and the “Total UCB-9260, 6 hour” value [1] was 15.3347 µM and 0.2521 µM and 2.096 µM and 17.8525 µM and 4.1624 µM and 34.4762 µM. The concentration at 0.5 h (300mg/kg, human TNF neutrophilia model, individual mice, 0.5h post dose, read-out: Total exposure) was 57489.1 nM and 49482.4 nM, the concentration at 0.5 h (300mg/kg, human TNF neutrophilia model, individual mice, read-out: Free exposure) was 996.6 nM and 1379.7 nM and the concentration at 0.5 h (300mg/kg, mouse TNF neutrophilia model, individual mice, 0.5h post dose, read-out: Total exposure) was 47166.3 nM and 48883.6 nM. The concentration at 0.5 h (300mg/kg, mouse TNF neutrophilia model, individual mice, read-out: Free exposure) was 1511.9 nM and 1132.0 nM, the concentration at 1 h (300mg/kg, individual mice, read-out: free exposure 1h post dose) was 551.7 nM and 816.2 nM and 450.0 nM and 187.4 nM and 584.7 nM and 1013.9 nM and 538.9 nM and 1275.4 nM and the concentration at 1 h (300mg/kg, individual mice, read-out: total exposure 1h post dose) was 22987.2 nM and 34009.1 nM and 18750.9 nM and 7806.7 nM and 24360.9 nM and 42244.6 nM and 22455.4 nM and 53141.6 nM. It also gave a concentration at 0.5 h (Balb/c, mouse, blood, oral, 10 mg/kg, 10 mg/kg p.o., human TNF neutrophilia model, mean n=3 ± s.e.m., read-out: Blood concentration 0.5h post dose total) of 830 ± 184 nM, a concentration at 0.5 h (Balb/c, mouse, blood, oral, 10 mg/kg, 10 mg/kg p.o., mouse TNF neutrophilia model, Fu 2.4%, read-out: Blood concentration 0.5h post dose (free)) of 32 ± 2 nM and a concentration at 0.5 h (Balb/c, mouse, blood, oral, 10 mg/kg, 10 mg/kg p.o., mouse TNF neutrophilia model, mean n=3 ± s.e.m., read-out: Blood concentration 0.5h post dose total) of 1320 nM. For the same molecule, the concentration at 0.5 h (Balb/c, mouse, blood, oral, 10 mg/kg, mouse TNF neutrophilia model, individual mice, 0.5h post dose, read-out: Total exposure) was 1220 nM, the concentration at 0.5 h (Balb/c, mouse, blood, oral, 10 mg/kg, mouse TNF neutrophilia model, individual mice, read-out: Free exposure) was 35.9 nM and the concentration at 0.5 h (Balb/c, mouse, blood, oral, 30 mg/kg, 30 mg/kg p.o., mouse TNF neutrophilia model, Fu 2.4%, read-out: Blood concentration 0.5h post dose (free)) was 225 ± 23 nM.
